Patent US6897224B2, “Quinoline and isoquinoline derivatives, a process for their production and their use as inflammation inhibitors” (Schering AG, priority 2002, dated 2005)

How the values were obtained:
[1] = biological target: glucocorticoid receptor (GR) (Homo sapiens, UniProt P04150); experiment: biochemical
Excerpt: The binding of the substances to the glucocorticoid receptor (GR) and other steroid hormone receptors (mineral corticoid receptor (MR), progesterone receptor (PR) and androgen receptor (AR)) is examined with the aid of recombinantly produced receptors. Cytosol preparations of Sf9 cells, which had been infected with recombinant baculoviruses that code for the GR, are used for the binding studies.

[2] = biological target: T1, progesterone receptor (PR) (Homo sapiens, UniProt P06401); experiment: Binding to the progesterone receptor, recombinantly produced receptor
T1 construct: made in house
T1 sequence (P06401 1-933): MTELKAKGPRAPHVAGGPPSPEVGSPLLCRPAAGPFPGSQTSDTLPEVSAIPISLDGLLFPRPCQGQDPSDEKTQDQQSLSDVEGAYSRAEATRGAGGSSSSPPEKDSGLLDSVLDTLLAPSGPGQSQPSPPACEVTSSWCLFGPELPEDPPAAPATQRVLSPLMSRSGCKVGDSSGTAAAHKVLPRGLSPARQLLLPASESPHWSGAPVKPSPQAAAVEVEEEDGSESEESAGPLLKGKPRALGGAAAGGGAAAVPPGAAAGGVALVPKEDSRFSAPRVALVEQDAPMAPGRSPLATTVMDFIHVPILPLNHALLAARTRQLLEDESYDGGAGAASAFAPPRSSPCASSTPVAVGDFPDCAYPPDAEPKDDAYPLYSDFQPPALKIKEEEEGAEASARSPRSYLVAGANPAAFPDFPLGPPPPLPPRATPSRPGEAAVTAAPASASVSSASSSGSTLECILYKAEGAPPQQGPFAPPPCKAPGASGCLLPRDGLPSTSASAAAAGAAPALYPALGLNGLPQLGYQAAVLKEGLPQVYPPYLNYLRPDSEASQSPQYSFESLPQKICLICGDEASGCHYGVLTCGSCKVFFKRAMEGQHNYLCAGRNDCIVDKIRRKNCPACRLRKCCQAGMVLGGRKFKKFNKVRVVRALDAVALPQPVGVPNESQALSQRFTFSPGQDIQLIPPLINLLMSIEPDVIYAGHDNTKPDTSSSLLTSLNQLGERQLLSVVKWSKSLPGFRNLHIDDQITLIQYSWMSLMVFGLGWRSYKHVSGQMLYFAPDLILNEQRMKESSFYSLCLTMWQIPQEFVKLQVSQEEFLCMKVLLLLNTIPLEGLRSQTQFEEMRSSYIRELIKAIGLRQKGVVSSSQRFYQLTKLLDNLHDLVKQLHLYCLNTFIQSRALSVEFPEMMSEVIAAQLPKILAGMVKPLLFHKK

androgen receptor (AR) = biological target: T2, androgen receptor (AR) (Homo sapiens, UniProt P10275); experiment: Binding to the androgen receptor, recombinantly produced receptor
T2 construct: made in house
T2 sequence (P10275 1-920): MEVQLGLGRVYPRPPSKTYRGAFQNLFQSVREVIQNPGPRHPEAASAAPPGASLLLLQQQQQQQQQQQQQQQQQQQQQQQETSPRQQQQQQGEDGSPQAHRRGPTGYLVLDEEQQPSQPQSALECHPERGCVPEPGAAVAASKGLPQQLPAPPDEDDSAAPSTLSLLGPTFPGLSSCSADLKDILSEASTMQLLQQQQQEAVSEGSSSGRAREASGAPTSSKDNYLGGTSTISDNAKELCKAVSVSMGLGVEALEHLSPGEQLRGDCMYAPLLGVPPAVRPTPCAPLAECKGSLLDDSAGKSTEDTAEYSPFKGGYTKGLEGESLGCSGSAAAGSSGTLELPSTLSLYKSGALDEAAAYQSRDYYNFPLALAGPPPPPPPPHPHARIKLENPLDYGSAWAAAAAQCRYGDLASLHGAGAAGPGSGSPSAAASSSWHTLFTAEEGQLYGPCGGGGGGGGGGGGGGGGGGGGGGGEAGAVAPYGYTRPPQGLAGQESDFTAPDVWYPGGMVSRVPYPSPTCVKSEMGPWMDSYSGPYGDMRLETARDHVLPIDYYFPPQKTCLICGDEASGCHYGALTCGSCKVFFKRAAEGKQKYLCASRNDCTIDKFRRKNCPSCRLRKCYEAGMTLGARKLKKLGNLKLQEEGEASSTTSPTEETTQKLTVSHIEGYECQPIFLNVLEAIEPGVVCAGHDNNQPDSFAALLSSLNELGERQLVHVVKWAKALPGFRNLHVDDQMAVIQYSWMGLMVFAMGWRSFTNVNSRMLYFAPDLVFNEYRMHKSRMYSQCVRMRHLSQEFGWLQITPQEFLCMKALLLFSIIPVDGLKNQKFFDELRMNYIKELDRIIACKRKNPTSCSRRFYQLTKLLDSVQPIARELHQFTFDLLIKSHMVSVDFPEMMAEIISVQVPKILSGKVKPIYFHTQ

[3] = biological target: T3, mineral corticoid receptor (MR) (Homo sapiens, UniProt P08235); experiment: Binding to the mineral corticoid receptor, recombinantly produced receptor
T3 construct: made in house
T3 sequence (P08235 1-984): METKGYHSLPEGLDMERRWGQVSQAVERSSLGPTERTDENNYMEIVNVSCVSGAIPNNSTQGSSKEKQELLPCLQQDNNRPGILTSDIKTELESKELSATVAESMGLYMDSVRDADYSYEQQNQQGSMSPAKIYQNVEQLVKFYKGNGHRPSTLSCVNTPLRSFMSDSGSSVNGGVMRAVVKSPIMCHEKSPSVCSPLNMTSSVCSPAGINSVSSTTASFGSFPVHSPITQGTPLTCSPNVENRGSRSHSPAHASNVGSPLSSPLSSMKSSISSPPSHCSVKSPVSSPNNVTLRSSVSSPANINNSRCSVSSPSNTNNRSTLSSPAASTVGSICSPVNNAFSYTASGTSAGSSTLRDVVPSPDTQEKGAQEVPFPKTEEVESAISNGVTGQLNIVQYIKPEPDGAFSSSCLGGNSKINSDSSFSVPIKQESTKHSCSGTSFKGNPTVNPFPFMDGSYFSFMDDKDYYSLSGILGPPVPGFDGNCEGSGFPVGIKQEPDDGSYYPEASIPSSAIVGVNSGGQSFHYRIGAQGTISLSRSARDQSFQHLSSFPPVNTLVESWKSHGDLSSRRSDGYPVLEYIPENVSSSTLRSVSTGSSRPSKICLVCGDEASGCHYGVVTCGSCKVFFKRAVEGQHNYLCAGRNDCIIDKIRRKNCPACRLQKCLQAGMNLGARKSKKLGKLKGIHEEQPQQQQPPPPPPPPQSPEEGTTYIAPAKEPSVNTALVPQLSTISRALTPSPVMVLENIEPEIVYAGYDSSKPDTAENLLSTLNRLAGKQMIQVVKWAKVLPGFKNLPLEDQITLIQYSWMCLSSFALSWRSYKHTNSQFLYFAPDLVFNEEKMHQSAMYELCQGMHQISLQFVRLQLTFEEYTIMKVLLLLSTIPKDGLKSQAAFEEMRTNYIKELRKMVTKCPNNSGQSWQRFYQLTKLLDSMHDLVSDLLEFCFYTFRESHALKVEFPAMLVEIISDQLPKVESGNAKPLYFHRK

Chain of glucocorticoid receptor (GR) (P04150 whole entry, species assumed): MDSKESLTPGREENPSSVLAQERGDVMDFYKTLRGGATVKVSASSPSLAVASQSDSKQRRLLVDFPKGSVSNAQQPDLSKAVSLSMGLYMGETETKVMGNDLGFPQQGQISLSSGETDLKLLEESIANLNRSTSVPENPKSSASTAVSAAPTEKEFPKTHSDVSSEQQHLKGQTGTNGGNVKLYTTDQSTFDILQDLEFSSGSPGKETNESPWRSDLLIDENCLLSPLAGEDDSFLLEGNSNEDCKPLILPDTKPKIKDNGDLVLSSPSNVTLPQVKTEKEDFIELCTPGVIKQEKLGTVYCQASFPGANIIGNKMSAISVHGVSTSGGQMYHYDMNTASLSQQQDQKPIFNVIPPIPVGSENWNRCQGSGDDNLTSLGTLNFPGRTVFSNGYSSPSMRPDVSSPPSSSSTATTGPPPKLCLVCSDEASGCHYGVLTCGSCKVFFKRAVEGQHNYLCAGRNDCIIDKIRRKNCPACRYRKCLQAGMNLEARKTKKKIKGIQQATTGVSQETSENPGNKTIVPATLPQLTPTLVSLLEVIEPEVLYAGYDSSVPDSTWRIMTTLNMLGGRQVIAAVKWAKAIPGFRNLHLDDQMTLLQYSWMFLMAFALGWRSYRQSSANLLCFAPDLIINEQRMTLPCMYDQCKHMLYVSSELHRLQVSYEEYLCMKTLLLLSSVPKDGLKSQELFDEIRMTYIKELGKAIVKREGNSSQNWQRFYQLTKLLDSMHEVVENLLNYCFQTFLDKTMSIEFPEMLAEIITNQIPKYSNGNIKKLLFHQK

IC50 [1]: 0.6 to 1.3 nM | IC50 [2]: > 1000 nM | IC50 (androgen receptor (AR)): > 1000 nM | IC50 [3]: > 1000 nM
SMILES: CC(C)(CC(O)(CNc1cccc2ncccc12)C(F)(F)F)c1cc(F)ccc1O (stereo not shown) [Example 4]
